SMILES strings stand for the structures.

The first assay concerns the target T1, novel bilirubin oxidase M-1 of Trachyderma tsunodae K-2593 (Trachydermella tsunodae, UniProt O61263).
T1 sequence (O61263 22-521): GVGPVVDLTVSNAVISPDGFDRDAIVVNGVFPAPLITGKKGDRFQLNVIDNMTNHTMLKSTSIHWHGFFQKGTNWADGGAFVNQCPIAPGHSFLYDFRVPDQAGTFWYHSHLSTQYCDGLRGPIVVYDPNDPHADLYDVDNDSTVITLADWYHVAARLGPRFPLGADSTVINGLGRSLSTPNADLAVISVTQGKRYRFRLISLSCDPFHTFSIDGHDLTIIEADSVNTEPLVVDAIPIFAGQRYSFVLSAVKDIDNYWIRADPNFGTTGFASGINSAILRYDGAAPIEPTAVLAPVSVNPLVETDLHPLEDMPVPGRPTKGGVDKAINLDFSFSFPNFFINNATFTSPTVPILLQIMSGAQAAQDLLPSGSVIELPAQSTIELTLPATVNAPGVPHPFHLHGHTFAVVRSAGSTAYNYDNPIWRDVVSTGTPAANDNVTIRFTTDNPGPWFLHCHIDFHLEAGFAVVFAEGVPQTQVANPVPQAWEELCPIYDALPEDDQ
The assay is described as follows: Effect of interfering agents on bilirubin oxidase activity (decrease in absorption at 460 nm of bilirubin). The class given is biochemical. To be noted: 10 min, pH 7, read-out: Percent interference (%).
As to `O=C(O)CI` [Iodoacetic acid], the inhibition at 1000 µM was found to be 10%.

In the case of `O=C(O)CN(CCN(CC(=O)O)CC(=O)O)CC(=O)O` [EDTA], the inhibition at 1000 µM came out at 59%.

As for `c1ccc(-c2ccccn2)nc1` [α,α'-Dipyridyl], the inhibition at 1000 µM came to 30%.

Consider `N[C@@H](CCC(=O)N[C@@H](CS)C(=O)NCC(=O)O)C(=O)O` [Reduced glutathione], for which the inhibition at 1000 µM stood at 38%.

The assay is the same for the next values; noted with them: 10 min, pH 7; additive 1 mM; read-out: Percent interference (%).
In the case of `O=C1O[C@H]([C@@H](O)CO)C(O)=C1O` [L-ascorbic acid], the inhibition at 1000 µM was 100%. On the same count and under the same terms, as for `O[C@H](CS)[C@H](O)CS` (racemic) [Dithiothreitol], the figure is 86%; as for `OCCS` [2-Mercaptoethanol], 31%; as for `N[C@@H](CS)C(=O)O` [L-cysteine], 74%. Same read-out and setting: as for `c1cnc2c(c1)ccc1cccnc12` [o-Phenanthroline], the figure is 34%.

The values are drawn from patent publication US4600689A, “Novel bilirubin oxidase, its production and use” (Takara Shuzo Co., Ltd., priority 1983, dated 1986).
